Tests used:
QPCTL [1] = target: T1, QPCTL (Homo sapiens (Human), UniProt Q9NXS2); assay: QPCTL Enzymatic Activity Assay (coupled-enzyme fluorescent assay, H-Gln-AMC substrate); assay type: biochemical; details: recombinant truncated human QPCTL 10-12 nM, 10 μM H-Gln-AMC; read-out: QPCTL Inhibition IC50
Target sequence in this assay (Q9NXS2 53-382): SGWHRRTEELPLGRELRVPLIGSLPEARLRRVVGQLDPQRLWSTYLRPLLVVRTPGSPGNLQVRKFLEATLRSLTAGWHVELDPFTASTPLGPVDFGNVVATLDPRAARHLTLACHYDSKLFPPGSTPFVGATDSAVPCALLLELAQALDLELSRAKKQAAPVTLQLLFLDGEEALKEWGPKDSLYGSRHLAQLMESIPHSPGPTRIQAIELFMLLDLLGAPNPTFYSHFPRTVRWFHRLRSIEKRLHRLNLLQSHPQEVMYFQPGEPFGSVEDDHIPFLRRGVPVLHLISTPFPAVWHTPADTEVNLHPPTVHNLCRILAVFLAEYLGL

QPCT (rhQPCT) = QPCT (rhQPCT) (Homo sapiens (Human), UniProt Q16769); assay: QPCT Enzymatic Activity Assay (coupled-enzyme fluorescent assay, H-Gln-AMC substrate); assay type: biochemical; details: rhQPCT 10-12 nM, 10 μM H-Gln-AMC; read-out: QPCT Inhibition IC50
In short: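 Coupled assay: recombinant human QPCT converts H-Gln-AMC (10 μM final) to pyroglutamyl-AMC, 60 min at 37 °C, stopped by boiling; PGPEP-1 then releases AMC.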

QPCTL [2] = target: T1, QPCTL; assay: Inhibition of Cellular QPCTL Activity - FACS flow cytometry, CC2C6 anti-CD47 staining of Ramos cells; assay type: cell-based; details: Ramos human Burkitts Lymphoma cells, 72-96 hours, % CC2C6-positive cells
Description: Inhibition of Cellular QPCTL Activity—Fluorescence-Activated Cell Sorting (FACS) Flow Cytometry
The cells were incubated for 72-96 hours at 37° C. and 5% CO2. At the end of incubation period, cells were transferred to tubes and spun down at 1200 rpm for 5 minutes. […] After antibody staining, the cells were washed with FACS buffer then stained with SYTOX™ Blue dead cell stain at a dilution of 1:1000. Cells were analyzed on a BD FACS Melody and a positive staining gate on live cells was set using the 0.1% DMSO controls. […] Flow cytometry data were analyzed by FlowJo software and concentration-response-curves and IC50 values were generated using Collaborative Drug Discovery software.
Target sequence in this assay (Q9NXS2 whole entry, the tested form may be a part): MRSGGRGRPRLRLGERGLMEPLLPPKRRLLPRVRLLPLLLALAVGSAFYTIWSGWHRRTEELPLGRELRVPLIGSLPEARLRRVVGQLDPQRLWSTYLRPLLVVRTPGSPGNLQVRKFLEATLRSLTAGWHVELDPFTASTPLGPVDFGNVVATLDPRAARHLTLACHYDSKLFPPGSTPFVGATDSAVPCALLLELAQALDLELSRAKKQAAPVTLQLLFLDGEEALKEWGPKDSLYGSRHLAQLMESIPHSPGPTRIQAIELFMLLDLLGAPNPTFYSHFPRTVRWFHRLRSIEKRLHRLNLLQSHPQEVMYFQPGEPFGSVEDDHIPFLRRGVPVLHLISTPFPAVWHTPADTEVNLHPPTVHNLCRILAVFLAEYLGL

QPCTL [3] = target: T1, QPCTL; assay: Inhibition of Cellular QPCTL Activity - Imaging Assay, CC2C6 anti-CD47 staining of DLD-1 cells; assay type: cell-based; details: 72 hours, CC2C6 anti-CD47 high-content imaging
Description: Inhibition of Cellular QPCTL Activity—Imaging Assay
The cells were incubated for 72 hours at 37° C. and 5% CO2. […] After primary antibody staining, the cells were fixed with 4% paraformaldehyde in the incubation buffer for 15 minutes at room temperature. […] Cells were analyzed on a ImageXpress Pico Automated Cell Imaging System (Molecular Devices) using 10× objective (3×3 fields).
Target sequence in this assay (Q9NXS2 whole entry, the tested form may be a part): as above

Chain of QPCT (rhQPCT) (Q16769 29-361): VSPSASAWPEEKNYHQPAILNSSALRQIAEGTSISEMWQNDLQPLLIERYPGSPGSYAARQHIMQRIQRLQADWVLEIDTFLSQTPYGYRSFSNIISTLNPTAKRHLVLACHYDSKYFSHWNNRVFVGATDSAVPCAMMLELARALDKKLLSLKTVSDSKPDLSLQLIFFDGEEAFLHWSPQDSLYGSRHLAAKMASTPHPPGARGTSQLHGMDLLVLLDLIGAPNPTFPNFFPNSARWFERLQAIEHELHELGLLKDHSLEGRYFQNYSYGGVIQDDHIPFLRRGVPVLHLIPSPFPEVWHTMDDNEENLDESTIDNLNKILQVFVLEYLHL

Compound	IC50 (QPCTL [1]) [nM]	IC50 (QPCT (rhQPCT)) [nM]	IC50 (QPCTL [2]) [nM]	IC50 (QPCTL [3]) [nM]
COc1ccncc1-c1ccc(OC)c(C#N)c1N1CCC(c2nncn2C)CC1 [Example 25, 6-methoxy-3-(4-methoxypyridin-3-yl)-2-[4-(4-methyl-4H-1,2,4-triazol-3-yl)piperidin-1-yl]benzonitrile]	< 100	< 100	100 to 1000	1000 to 10000
Cn1cnnc1C1CCN(c2c(C#N)cccc2-c2cnc(=O)n(C)c2)CC1 [Example 34, 3-(1-methyl-2-oxo-1,2-dihydropyrimidin-5-yl)-2-[4-(4-methyl-4H-1,2,4-triazol-3-yl)piperidin-1-yl]benzonitrile]	< 100	< 100	1000 to 10000	100 to 1000
Cn1cc(-c2ccc(-c3ccc(F)nc3)c(N3CCC(c4nncn4C)CC3)c2C#N)cn1 [Example 35, 3-(6-fluoropyridin-3-yl)-6-(1-methyl-1H-pyrazol-4-yl)-2-[4-(4-methyl-4H-1,2,4-triazol-3-yl)piperidin-1-yl]benzonitrile]	< 100	< 100	< 100	< 100
Cn1cnnc1C1CCN(c2c(C#N)ccc(F)c2-c2ccc(F)nc2)CC1 [Example 38, 4-fluoro-3-(6-fluoropyridin-3-yl)-2-[4-(4-methyl-4H-1,2,4-triazol-3-yl)piperidin-1-yl]benzonitrile]	< 100	< 100	< 100	< 100
